Test results as given in patent publication US10945992B1, “Dosage forms of rofecoxib and related methods” (Tremeau Pharmaceuticals, Inc., priority 2019, dated 2021).
Like-named read-outs stand apart in the source and are kept apart here.

Assay: TRM-201-PK-102 single-dose four-period crossover pharmacokinetic study, fasted healthy subjects
Type: in vivo, human
Settings: human, plasma, oral; for Cmax / AUC(0-inf): 102 study
Procedure: A Single-Dose, Open-Label, Phase 1, Four-Period Crossover Pharmacokinetic Study of TRM-201 (Rofecoxib) 12.5 mg, 17.5 mg, 20 mg and 25 mg Administered to Healthy Subjects in a Fasting State, with Comparison to Historical Pharmacokinetic Parameters of Previously Marketed Rofecoxib (“TRM-201-PK-102” or “102 PK Study”)
This was a single-center, open-label four-period crossover PK study of TRM-201. The study included 24 subjects who received TRM-201 as a single dose of 12.5 mg, 17.5 mg, 20 mg and 25 mg to assess the PK of TRM-201 in healthy volunteers under fasted conditions. Subjects were randomized to one of four treatment sequences. The PK data from the current study along with the data from the TRM-201-PK-101 study (Example 4) was used to compare to historical pharmacokinetic parameters of previously marketed rofecoxib, all in a fasted state.
In each of the four dosing periods, subjects fasted overnight for at least 10 hours before study drug dosing. While fasting, subjects had nothing to eat and only water to drink. Water was permitted as desired, except for the period between 1 hour before and 1 hour after study drug dosing (excepting as permitted for dosing). After the 2-hour PK blood sample, subjects were allowed one 250-mL cup of clear apple juice. After the 4-hour PK blood sample, subjects were served a light lunch. Following the light lunch, subjects received standardized meals according to the clinic's standard procedures that were scheduled at consistent times and at least 15 minutes before or 15 minutes after PK sampling time points. Blood was withdrawn for PK analysis at predefined time points. For each dosing period the last time point was 120 hours after dosing with study drug (Day 6). After the 120 hour PK sample, the EOP procedures was completed, subjects remained in-clinic for the in-between dose period day (Days 7, 14, and 21) and began the next dosing period starting with an overnight fast for at least 10 hours on Day −1 of the subsequent dosing period. Pharmacokinetic and safety endpoints were evaluated.
The study drug, TRM-201, was an immediate-release tablet that contained 12.5 mg rofecoxib, 17.5 mg rofecoxib, 20 mg rofecoxib or 25 mg rofecoxib. The 7.25-mm diameter tablets were off-white, round, and uncoated with no markings. TRM-201 tablets were for oral administration.
For each sample, approximately 3 mL of blood were drawn. The samples were obtained by a straight stick or via an in-dwelling intravenous (IV) catheter in a forearm vein. Additional details for the collection, processing, storage, and shipping of PK samples were provided in the study manual.
Pharmacokinetic samples will be analyzed using a validated assay for rofecoxib in human plasma. Assay results and validation details will be provided in a separate bioanalytical report. The following PK parameters for rofecoxib will be calculated as primary endpoints using standard noncompartmental methods: AUC0-∞ and Cmax. Secondary endpoints include Tmax, and t1/2. Additional PK parameters (e.g., CL/F, and Vd/F) will also be calculated using standard noncompartmental methods.
Individual plasma concentrations for rofecoxib and PK sampling time deviation data will be presented in a data listing. Plasma concentration data will be summarized by time point using the following descriptive statistics: number of subjects, arithmetic mean, SD, coefficient of variation (CV), geometric mean, natural-log-scale SD, geometric CV, median, minimum, and maximum. Individual plasma concentration versus actual time profiles were presented on both linear and semilogarithmic scales. Additionally, arithmetic mean concentration versus scheduled time profiles were presented on linear scales and geometric means on semilogarithmic scales.
The PK parameters of rofecoxib were analyzed based on the actual sampling times. […]

[1] = 25 mg, read-out: arithmetic mean plasma concentration
[2] = 25 mg, read-out: geometric mean plasma concentration

CS(=O)(=O)c1ccc(C2=C(c3ccccc3)C(=O)OC2)cc1 [TRM-201, 4-[4-(methylsulfonyl)phenyl]-3-phenyl-2(5H)-furanone]
Cmax (25 mg, 41-52 years, read-out: arithmetic mean Cmax): 326 ng/mL | AUC(0-inf) (25 mg, 41-52 years, read-out: geometric mean AUC0-∞): 4580 ng·h/mL | Cmax (25 mg, 41-52 years, read-out: geometric mean Cmax): 321 ng/mL | AUC(0-inf) (25 mg, 53-60 years, read-out: arithmetic mean AUC0-∞): 4940 ng·h/mL | Cmax (25 mg, 53-60 years, read-out: arithmetic mean Cmax): 354 ng/mL | AUC(0-inf) (25 mg, 53-60 years, read-out: geometric mean AUC0-∞): 4880 ng·h/mL | Cmax (25 mg, 53-60 years, read-out: geometric mean Cmax): 347 ng/mL | AUC(0-inf) (25 mg, Black or African-American subjects, read-out: arithmetic mean AUC0-∞): 3990 ng·h/mL | Cmax (25 mg, Black or African-American subjects, read-out: arithmetic mean Cmax): 340 ng/mL | AUC(0-inf) (25 mg, Black or African-American subjects, read-out: geometric mean AUC0-∞): 3940 ng·h/mL | Cmax (25 mg, Black or African-American subjects, read-out: geometric mean Cmax): 339 ng/mL | AUC(0-inf) (25 mg, Hispanic or Latino subjects, read-out: arithmetic mean AUC0-∞): 4980 ng·h/mL | Cmax (25 mg, Hispanic or Latino subjects, read-out: arithmetic mean Cmax): 358 ng/mL | AUC(0-inf) (25 mg, Hispanic or Latino subjects, read-out: geometric mean AUC0-∞): 4870 ng·h/mL | Cmax (25 mg, Hispanic or Latino subjects, read-out: geometric mean Cmax): 351 ng/mL | AUC(0-inf) (25 mg, White subjects, read-out: arithmetic mean AUC0-∞): 4800 ng·h/mL | Cmax (25 mg, White subjects, read-out: arithmetic mean Cmax): 351 ng/mL | AUC(0-inf) (25 mg, White subjects, read-out: geometric mean AUC0-∞): 4650 ng·h/mL | Cmax (25 mg, White subjects, read-out: geometric mean Cmax): 341 ng/mL | AUC(0-inf) (25 mg, body weight 47-70 kg, read-out: arithmetic mean AUC0-∞): 4450 ng·h/mL | Cmax (25 mg, body weight 47-70 kg, read-out: arithmetic mean Cmax): 385 ng/mL | AUC(0-inf) (25 mg, body weight 47-70 kg, read-out: geometric mean AUC0-∞): 4310 ng·h/mL | Cmax (25 mg, body weight 47-70 kg, read-out: geometric mean Cmax): 376 ng/mL | AUC(0-inf) (25 mg, body weight 70.1-77 kg, read-out: arithmetic mean AUC0-∞): 5470 ng·h/mL | Cmax (25 mg, body weight 70.1-77 kg, read-out: arithmetic mean Cmax): 371 ng/mL | AUC(0-inf) (25 mg, body weight 70.1-77 kg, read-out: geometric mean AUC0-∞): 5410 ng·h/mL | Cmax (25 mg, body weight 70.1-77 kg, read-out: geometric mean Cmax): 368 ng/mL | AUC(0-inf) (25 mg, body weight 77.1-90 kg, read-out: arithmetic mean AUC0-∞): 4130 ng·h/mL | Cmax (25 mg, body weight 77.1-90 kg, read-out: arithmetic mean Cmax): 299 ng/mL | AUC(0-inf) (25 mg, body weight 77.1-90 kg, read-out: geometric mean AUC0-∞): 4040 ng·h/mL | Cmax (25 mg, body weight 77.1-90 kg, read-out: geometric mean Cmax): 294 ng/mL | AUC(0-inf) (25 mg, non-Hispanic or non-Latino subjects, read-out: arithmetic mean AUC0-∞): 4280 ng·h/mL | Cmax (25 mg, non-Hispanic or non-Latino subjects, read-out: arithmetic mean Cmax): 340 ng/mL | AUC(0-inf) (25 mg, non-Hispanic or non-Latino subjects, read-out: geometric mean AUC0-∞): 4150 ng·h/mL | Cmax (25 mg, non-Hispanic or non-Latino subjects, read-out: geometric mean Cmax): 331 ng/mL | concentration at 15 minutes [1]: 5.63 ng/mL | concentration at 15 minutes [2]: 1.37 ng/mL | concentration at 45 minutes [1]: 159 ng/mL | concentration at 45 minutes [2]: 97.6 ng/mL | AUC(0-inf) (male, 12.5 mg, males, read-out: arithmetic mean AUC0-∞): 1750 ng·h/mL | Cmax (male, 12.5 mg, males, read-out: arithmetic mean Cmax): 132 ng/mL | AUC(0-inf) (male, 12.5 mg, males, read-out: geometric mean AUC0-∞): 1580 ng·h/mL | Cmax (male, 12.5 mg, males, read-out: geometric mean Cmax): 127 ng/mL | AUC(0-inf) (male, 17.5 mg, males, read-out: arithmetic mean AUC0-∞): 2860 ng·h/mL | Cmax (male, 17.5 mg, males, read-out: arithmetic mean Cmax): 201 ng/mL | AUC(0-inf) (male, 17.5 mg, males, read-out: geometric mean AUC0-∞): 2710 ng·h/mL | Cmax (male, 17.5 mg, males, read-out: geometric mean Cmax): 196 ng/mL | AUC(0-inf) (male, 20 mg, males, read-out: arithmetic mean AUC0-∞): 3130 ng·h/mL | Cmax (male, 20 mg, males, read-out: arithmetic mean Cmax): 234 ng/mL | AUC(0-inf) (male, 20 mg, males, read-out: geometric mean AUC0-∞): 2940 ng·h/mL | Cmax (male, 20 mg, males, read-out: geometric mean Cmax): 224 ng/mL | AUC(0-inf) (male, 25 mg, males, read-out: arithmetic mean AUC0-∞): 4080 ng·h/mL | Cmax (male, 25 mg, males, read-out: arithmetic mean Cmax): 302 ng/mL | AUC(0-inf) (male, 25 mg, males, read-out: geometric mean AUC0-∞): 3940 ng·h/mL | Cmax (male, 25 mg, males, read-out: geometric mean Cmax): 298 ng/mL | AUC(0-inf) (male, 25 mg, printed 'For males' (second statement, after the females' arithmetic means), read-out: geometric mean AUC0-∞): 5020 ng·h/mL | Cmax (male, 25 mg, printed 'For males' (second statement, after the females' arithmetic means), read-out: geometric mean Cmax): 382 ng/mL
